Source: PMC9471048, “The signaling and selectivity of α‐adrenoceptor agonists for the human α2A, α2B and α2C‐adrenoceptors and comparison with human α1 and β‐adrenoceptors” (Pharmacology Research & Perspectives, 2022)
Read-outs that look alike come from different tables or passages of the source.

Assays:
human α2A‐adrenoceptor [1] = target: T1, human α2A‐adrenoceptor (Homo sapiens, UniProt P08913); details: for % inhibition, CRE‐SPAP (with forskolin): % inhibition from the 3 μM forskolin control, inhibition only; for Log efficacy ratio (KD/IC50): binding KD / Gi IC50 of CRE‐SPAP; for % inhibition, CRE-SPAP (with forskolin): from 3 μM forskolin control
T1 sequence (P08913 1-465): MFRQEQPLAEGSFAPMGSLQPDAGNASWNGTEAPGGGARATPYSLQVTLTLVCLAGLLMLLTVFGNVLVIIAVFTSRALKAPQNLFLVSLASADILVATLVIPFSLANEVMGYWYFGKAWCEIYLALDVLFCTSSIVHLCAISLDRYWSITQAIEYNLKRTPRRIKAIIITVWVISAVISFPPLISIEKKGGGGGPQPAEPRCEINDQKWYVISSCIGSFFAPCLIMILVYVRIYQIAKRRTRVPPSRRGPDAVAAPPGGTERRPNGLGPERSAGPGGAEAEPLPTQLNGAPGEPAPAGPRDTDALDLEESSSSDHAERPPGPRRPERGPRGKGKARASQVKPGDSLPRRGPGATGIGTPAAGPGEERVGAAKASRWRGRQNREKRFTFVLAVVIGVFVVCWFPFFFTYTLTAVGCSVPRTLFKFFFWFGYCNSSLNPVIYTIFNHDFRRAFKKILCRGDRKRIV

human α2C‐adrenoceptor [2] = target: T2, human α2C‐adrenoceptor (Homo sapiens, UniProt P18825); details: for Log efficacy ratio (KD/IC50): log KD from 3H‐rauwolscine binding versus CRE‐SPAP log IC50
T2 sequence (P18825 1-462): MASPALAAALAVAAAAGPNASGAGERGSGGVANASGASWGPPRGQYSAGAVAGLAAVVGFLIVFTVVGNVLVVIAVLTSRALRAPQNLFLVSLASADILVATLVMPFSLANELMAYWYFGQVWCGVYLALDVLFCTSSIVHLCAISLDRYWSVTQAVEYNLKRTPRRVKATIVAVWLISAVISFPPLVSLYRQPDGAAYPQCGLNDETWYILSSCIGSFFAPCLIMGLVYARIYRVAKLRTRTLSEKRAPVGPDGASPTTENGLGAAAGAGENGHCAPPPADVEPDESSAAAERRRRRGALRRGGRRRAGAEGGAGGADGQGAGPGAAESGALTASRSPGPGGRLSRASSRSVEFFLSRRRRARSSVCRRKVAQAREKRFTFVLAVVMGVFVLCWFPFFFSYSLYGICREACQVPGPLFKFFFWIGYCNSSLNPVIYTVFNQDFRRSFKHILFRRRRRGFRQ

human α2A‐adrenoceptor [3] = target: T1, human α2A‐adrenoceptor; experiment: 3H‐rauwolscine whole cell binding in CHO‐α2A cells; design: expressed in transfected cells; host or cells: CHO-K1 with CRE-SPAP reporter
human α2C‐adrenoceptor [4] = target: T2, human α2C‐adrenoceptor; experiment: 3H‐rauwolscine whole cell binding in CHO‐α2C cells; design: expressed in transfected cells; host or cells: CHO-K1 with CRE-SPAP reporter
human α2A‐adrenoceptor [5] = target: T1, human α2A‐adrenoceptor; experiment: ERK1/2‐phosphorylation in CHO‐α2A cells; type: cell-based; design: expressed in transfected cells; host or cells: CHO-K1 with CRE-SPAP reporter
human α2C‐adrenoceptor [6] = target: T2, human α2C‐adrenoceptor; experiment: ERK1/2‐phosphorylation in CHO‐α2C cells; type: cell-based; design: expressed in transfected cells; host or cells: CHO-K1 with CRE-SPAP reporter
[7] = CHO‐α2A (cell line 1), absence of forskolin
[8] = CHO‐α2C cells, % inhibition from the 3 μM forskolin control, mean ± SEM
[9] = CHO‐α2C cells, CRE‐SPAP production in the absence of forskolin
[10] = Log IC50 (Gi), CRE‐SPAP (with forskolin), CHO‐α2C cells, inhibition of 3 μM forskolin‐stimulated CRE‐SPAP production, given as negative log IC50, mean ± SEM
[11] = 3H‐rauwolscine whole cell binding, living cells, negative log KD, mean ± SEM, read-out: Log KD, CHO‐α2A (converted)
[12] = CHO‐α2A, 3H‐rauwolscine whole cell binding, given as negative log KD, read-out: Log KD (binding) (converted)
[13] = fold, from KD values, 1 = no selectivity
[14] = 3H‐rauwolscine whole cell binding, living cells, negative log KD, mean ± SEM, read-out: Log KD, CHO‐α2C (converted)
[15] = CHO‐α2C cells, 3H‐rauwolscine whole cell binding, given as negative log KD, mean only (SEM in Table 4), read-out: Log KD (converted)
[16] = CHO‐α2A, maximum response compared to 10 μM PDBu
[17] = CHO‐α2A, read-out: Log EC50, ERK1/2‐phosphorylation (converted)
[18] = CHO‐α2C cells, maximum response compared to 10 μM PDBu, mean ± SEM
[19] = CHO‐α2C cells, given as negative log EC50, mean ± SEM, read-out: Log EC50, ERK1/2‐phosphorylation (converted)
[20] = read-out: Log KD (binding) (converted)
[21] = read-out: Log KD, CHO‐α2A (converted)
[22] = Log IC50 (Gi), CRE‐SPAP (with forskolin), CHO‐α2A (cell line 1, 5830 fmol/mg protein), 3 μM forskolin
[23] = 3H‐rauwolscine whole cell binding, ^app: apparent KD, IC50 from extrapolated curve as not all specific binding was inhibited, read-out: Log KD (apparent), CHO‐α2A (converted)
[24] = 3H‐rauwolscine whole cell binding, ^app: apparent KD, IC50 from extrapolated curve as not all specific binding was inhibited, read-out: Log KD (apparent), CHO‐α2C (converted)

Structure (SMILES)	% inhibition, CRE‐SPAP (with forskolin) (human α2A‐adrenoceptor [1]; CHO‐α2A (cell line 1)) [%]	Log EC50 (Gs), CRE‐SPAP (without forskolin) (human α2A‐adrenoceptor [1]; [7])	Log efficacy ratio (KD/IC50) (human α2A‐adrenoceptor [1]; CHO‐α2A)	% inhibition, CRE‐SPAP (with forskolin) (human α2C‐adrenoceptor [2]; [8]) [%]	Log EC50 (Gs), CRE‐SPAP (without forskolin) (human α2C‐adrenoceptor [2]; [9])	Log efficacy ratio (KD/IC50) (human α2C‐adrenoceptor [2]; CHO‐α2C cells)	IC50 (human α2C‐adrenoceptor [2]; [10]) [µM]	Kd (human α2A‐adrenoceptor [3]; [12]) [µM]	Selectivity ratio α2A vs α2B (higher affinity for α2A) (human α2A‐adrenoceptor [3]; [13])	Selectivity ratio α2A vs α2C (higher affinity for α2A) (human α2A‐adrenoceptor [3]; [13])	Kd (human α2C‐adrenoceptor [4]; [14]) [µM]	Kd (human α2C‐adrenoceptor [4]; [15]) [µM]	Selectivity ratio α2B vs α2C (higher affinity for α2C) (human α2C‐adrenoceptor [4]; [13])	% 10 μM PDBu, ERK1/2‐phosphorylation (human α2A‐adrenoceptor [5]; [16]) [%]	EC50 (human α2A‐adrenoceptor [5]; [17]) [µM]	% 10 μM PDBu, ERK1/2‐phosphorylation (human α2C‐adrenoceptor [6]; [18]) [%]	EC50 (human α2C‐adrenoceptor [6]; [19]) [µM]	also measured
c1ccc(C2CC2)c(OCC2=NCCN2)c1 [Cirazoline]	43.6 ± 4.4	No response	−0.16	74.2 ± 2.1	No response	0.41	0.331	0.417	16.2	2.0	0.851	0.851	7.9	113.0 ± 14.3	0.158	139.1 ± 10.2	0.0832	IC50 (human α2A‐adrenoceptor [1]): 0.603 µM; Kd (human α2A‐adrenoceptor [3]; [11]): 0.417 µM
Cc1cccc([C@H](C)c2cnc[nH]2)c1C [Dexmedetomidine]																		% 3 μM forskolin, CRE‐SPAP (without forskolin) (human α2A‐adrenoceptor [1]): 23.6 ± 2.7%; % inhibition, CRE‐SPAP (with forskolin) (human α2C‐adrenoceptor [2]): 73.4 ± 4.4%; Log EC50 (Gs), CRE‐SPAP (without forskolin) (human α2C‐adrenoceptor [2]): No response; IC50 (human α2C‐adrenoceptor [2]; Log IC50 (Gi), CRE‐SPAP (with forskolin)): 0.000692 µM; higher affinity for α2 than α1‐adrenoceptor subtypes (human α2A‐adrenoceptor [3]): 100 fold; Kd (human α2C‐adrenoceptor [4]; read-out: Log KD (converted)): 0.0302 µM; Kd (human α2C‐adrenoceptor [4]; read-out: Log KD, CHO‐α2C (converted)): 0.0302 µM; % 10 μM PDBu, ERK1/2‐phosphorylation (human α2A‐adrenoceptor [5]): 138.5 ± 15.4%; % 10 μM PDBu, ERK1/2‐phosphorylation (human α2C‐adrenoceptor [6]): 153.0 ± 18.5%; EC50 (human α2C‐adrenoceptor [6]; read-out: Log EC50, ERK1/2‐phosphorylation (converted)): 0.000263 µM
CC(CCc1ccc(O)cc1)NCCc1ccc(O)c(O)c1 (stereo not drawn) [Dobutamine]		No response			No response						5.5	5.5			2		0.759	Log IC50 (Gi), CRE‐SPAP (with forskolin) (human α2A‐adrenoceptor [1]; CHO‐α2A (cell line 1, 5830 fmol/mg protein), 3 μM forskolin): No response; IC50 (human α2C‐adrenoceptor [2]): 20.9 µM; Kd (human α2A‐adrenoceptor [3]; [20]): 20.4 µM; Kd (human α2A‐adrenoceptor [3]; [21]): 20.4 µM
CN[C@@H](C)[C@H](O)c1ccccc1 [Ephedrine]																		Log EC50 (Gs), CRE‐SPAP (without forskolin) (human α2A‐adrenoceptor [1]): No response; Log IC50 (Gi), CRE‐SPAP (with forskolin) (human α2A‐adrenoceptor [1]): No response; Log EC50 (Gs), CRE‐SPAP (without forskolin) (human α2C‐adrenoceptor [2]): No response; Log IC50 (Gi), CRE‐SPAP (with forskolin) (human α2C‐adrenoceptor [2]): No response; Kd (human α2A‐adrenoceptor [3]): 34.7 µM; Selectivity ratio α2A vs α2B (higher affinity for α2A) (human α2A‐adrenoceptor [3]): 4.2; Selectivity ratio α2A vs α2C (higher affinity for α2A) (human α2A‐adrenoceptor [3]): 1.1; Kd (human α2A‐adrenoceptor [3]; Log KD, CHO‐α2A): 34.7 µM; Kd (human α2C‐adrenoceptor [4]): 39.8 µM; Selectivity ratio α2B vs α2C (higher affinity for α2C) (human α2C‐adrenoceptor [4]): 3.6; Kd (human α2C‐adrenoceptor [4]; Log KD, CHO‐α2C): 39.8 µM; % 10 μM PDBu, ERK1/2‐phosphorylation (human α2A‐adrenoceptor [5]): 123.1 ± 17.3%; EC50 (human α2A‐adrenoceptor [5]): 16.6 µM; % 10 μM PDBu, ERK1/2‐phosphorylation (human α2C‐adrenoceptor [6]): 88.0 ± 12.5%; EC50 (human α2C‐adrenoceptor [6]): 33.1 µM
CCNCC(O)c1cccc(O)c1 (stereo not drawn) [Etilefrine]	101.3 ± 4.6	No response	0.61	86.2 ± 7.2	No response	1.01	12	195	2.1			123	3.4	150.8 ± 10.2	3.24	182.2 ± 9.6	3.16	IC50 (human α2A‐adrenoceptor [1]; [22]): 47.9 µM; Kd (human α2A‐adrenoceptor [3]; [23]): 195 µM; Kd (human α2C‐adrenoceptor [4]; [24]): 123 µM; Selectivity ratio α2A vs α2C (higher affinity for α2C) (human α2C‐adrenoceptor [4]; [13]): 1.6
C[C@H](N)[C@H](O)c1cccc(O)c1 [Metaraminol]	87.0 ± 1.3	No response	1.22	85.5 ± 1.8	No response	1.56			1.5		28.8	28.8	2.7	136.4 ± 13.9	0.24	158.8 ± 22.2	0.158	IC50 (human α2A‐adrenoceptor [1]): 3.16 µM; IC50 (human α2C‐adrenoceptor [2]): 0.794 µM; Kd (human α2A‐adrenoceptor [3]; [20]): 52.5 µM; Kd (human α2A‐adrenoceptor [3]; [21]): 52.5 µM; Selectivity ratio α2A vs α2C (higher affinity for α2C) (human α2C‐adrenoceptor [4]; [13]): 1.8
COc1ccc(OC)c(C(O)C(C)N)c1 (stereo not drawn) [Methoxamine]		No response		72.3 ± 13.6	No response	1.01	11	93.3	2.5	1.2		112	2.1	120.9 ± 29.4	6.03	131.0 ± 19.2	2.34	IC50 (human α2A‐adrenoceptor [1]; IC50 (Gi), CRE‐SPAP (with forskolin), CHO‐α2A, 3 μM forskolin): > 100 µM; Kd (human α2A‐adrenoceptor [3]; [23]): 93.3 µM; Kd (human α2C‐adrenoceptor [4]; [24]): 112 µM
c1ccc2c(CC3=NCCN3)cccc2c1 [Naphazoline]	83.1 ± 3.6	No response	0.78	81.3 ± 4.2	No response	0.72	0.0759	0.0977	16.2	4.1	0.398	0.398	4.0	118.1 ± 9.0	0.00191	157.8 ± 12.6	0.0126	% inhibition, CRE-SPAP (with forskolin) (human α2A‐adrenoceptor [1]; CHO-α2A cell line 2, 4724 fmol/mg protein): 69.4 ± 5.8%; % inhibition, CRE-SPAP (with forskolin) (human α2A‐adrenoceptor [1]; CHO-α2A cell line 3, 121 fmol/mg protein): 24.8 ± 4.3%; IC50 (human α2A‐adrenoceptor [1]; Log IC50 (Gi), CRE-SPAP (with forskolin), CHO-α2A cell line 2, expression 4724 fmol/mg protein, 3 μM forskolin): 0.0575 µM; IC50 (human α2A‐adrenoceptor [1]; Log IC50 (Gi), CRE-SPAP (with forskolin), CHO-α2A cell line 3, expression 121 fmol/mg protein, 3 μM forskolin): 0.417 µM; IC50 (human α2A‐adrenoceptor [1]; [22]): 0.0162 µM; Kd (human α2A‐adrenoceptor [3]; [11]): 0.0977 µM
